Laboratory results taken from the supplement of paper PMC4862054.

What was measured:
Details in all cases: incubation time: 72 h
[1] = tested on: BT-549; assay: normalised response (% of control), CellTiter-Glo; higher = more viable cells (100 = DMSO, 0 = benzethonium chloride kill control)
Summary of the method: (§1)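 Two readouts were taken after 72 h: CellTox Green fluorescence (485/520 nm) first, then CellTiter-Glo luminescence after 10 min at room temperature. Breast cancer cell lines had been seeded as 20 µl suspension into 384-well plates holding compound at 5 concentrations in 10-fold steps across a compound-specific 10,000-fold range. Each value is a normalised signal at a single concentration, with plates scaled to 0.1 % DMSO (100) and a positive kill control (0).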

[2] = tested on: MFM-223; assay: as above
Summary of the method: as §1

[3] = tested on: MDA-MB-468; assay: as above
Summary of the method: as §1

[4] = tested on: HCC1599; assay: as above
Summary of the method: as §1

[5] = tested on: SK-BR-3; assay: as above
Summary of the method: as §1

[6] = tested on: CAL-51; assay: as above
Summary of the method: as §1

[7] = tested on: MCF-10A; assay: as above
Summary of the method: as §1

[8] = tested on: DU-4475; assay: as above
Summary of the method: as §1

[9] = tested on: CAL-85-1; assay: as above
Summary of the method: as §1

[10] = tested on: HCC1937; assay: as above
Summary of the method: as §1

[11] = tested on: BT-474; assay: as above
Summary of the method: as §1

[12] = tested on: HDQ-P1; assay: as above
Summary of the method: as §1

[13] = tested on: MDA-MB-436; assay: as above
Summary of the method: as §1

[14] = tested on: CAL-148; assay: as above
Summary of the method: as §1

[15] = tested on: Hs578T; assay: as above
Summary of the method: as §1

[16] = tested on: CAL-120; assay: as above
Summary of the method: as §1

[17] = tested on: MDA-MB-231; assay: as above
Summary of the method: as §1

[18] = tested on: HCC1143; assay: as above
Summary of the method: as §1

[19] = tested on: MDA-MB-453; assay: as above
Summary of the method: as §1

[20] = tested on: BT-549; assay: normalised response (% of control), CellTox Green; higher = less cell death (100 = DMSO, 0 = benzethonium chloride kill control)
Summary of the method: as §1

[21] = tested on: MFM-223; assay: as above
Summary of the method: as §1

[22] = tested on: MDA-MB-468; assay: as above
Summary of the method: as §1

[23] = tested on: HCC1599; assay: as above
Summary of the method: as §1

[24] = tested on: MCF-10A; assay: as above
Summary of the method: as §1

[25] = tested on: DU-4475; assay: as above
Summary of the method: as §1

[26] = tested on: CAL-85-1; assay: as above
Summary of the method: as §1

[27] = tested on: HCC1937; assay: as above
Summary of the method: as §1

[28] = tested on: BT-474; assay: as above
Summary of the method: as §1

[29] = tested on: HDQ-P1; assay: as above
Summary of the method: as §1

[30] = tested on: MDA-MB-436; assay: as above
Summary of the method: as §1

[31] = tested on: CAL-148; assay: as above
Summary of the method: as §1

[32] = tested on: Hs578T; assay: as above
Summary of the method: as §1

[33] = tested on: CAL-120; assay: as above
Summary of the method: as §1

[34] = tested on: MDA-MB-231; assay: as above
Summary of the method: as §1

[35] = tested on: HCC1143; assay: as above
Summary of the method: as §1

[36] = tested on: MDA-MB-453; assay: as above
Summary of the method: as §1

[37] = tested on: CAL-51; assay: as above
Summary of the method: as §1

Structure (SMILES)	normalised response [1] [%]	normalised response [2] [%]	normalised response [3] [%]	normalised response [4] [%]	normalised response [5] [%]	normalised response [6] [%]	normalised response [7] [%]	normalised response [8] [%]	normalised response [9] [%]	normalised response [10] [%]	normalised response [11] [%]	normalised response [12] [%]	normalised response [13] [%]	normalised response [14] [%]	normalised response [15] [%]	normalised response [16] [%]	normalised response [17] [%]	normalised response [18] [%]	normalised response [19] [%]	normalised response [20] [%]	normalised response [21] [%]	normalised response [22] [%]	normalised response [23] [%]	normalised response [24] [%]	normalised response [25] [%]	normalised response [26] [%]	normalised response [27] [%]	normalised response [28] [%]	normalised response [29] [%]	normalised response [30] [%]	normalised response [31] [%]	normalised response [32] [%]	normalised response [33] [%]	normalised response [34] [%]	normalised response [35] [%]	normalised response [36] [%]	normalised response [37] [%]
CC(C)c1c(C(=O)Nc2ccccc2)c(-c2ccccc2)c(-c2ccc(F)cc2)n1CC[C@@H](O)C[C@@H](O)CC(=O)O [Atorvastatin] (1000 nM)	95.6	99.1	93.2	95.6	102	90.2	84	99.9	91.9	96.6	66.1	74.8	92.6	105	101	90.5	59.1	93.4	99.4	97.4	89.4	87.3	100	83.6	101	110	88.3	99.9	103	96.6	103	97.4	98.2	34	114	94.1	–
O=C(O)CCCc1ccc(N(CCCl)CCCl)cc1 [Chlorambucil] (1000 nM)	111	103	101	91.9	101	108	102	105	103	95	96.7	97.4	103	95.5	105	94.7	99.8	100	102	115	95.5	103	96.9	–	102	110	85.3	98.2	103	93.3	104	108	98.5	103	98.2	100	113
Cn1c(=O)n(-c2ccc(C(C)(C)C#N)cc2)c2c3cc(-c4cnc5ccccc5c4)ccc3ncc21 [Dactolisib] (100 nM)	23.8	39.1	39	80.4	30	31.7	45.2	41	39.9	57.3	62.1	52.7	62	30.4	35.2	29.1	50.4	45.5	38.8	134	99.3	134	103	108	94.5	94.4	65	104	109	110	72.8	108	89.3	108	109	98	104
CO[C@H]1C[C@@H]2CC[C@@H](C)[C@@](O)(O2)C(=O)C(=O)N2CCCC[C@H]2C(=O)O[C@H]([C@H](C)C[C@@H]2CC[C@@H](OCCO)[C@H](OC)C2)CC(=O)[C@H](C)/C=C(\C)[C@@H](O)[C@@H](OC)C(=O)[C@H](C)C[C@H](C)/C=C/C=C/C=C/1C [Everolimus] (10 nM)	64.9	62.6	52.1	88.8	53.7	61.6	79.2	68.2	67.1	69.7	80.7	78.7	77.8	51.9	71.9	64.9	85.7	62.6	55.2	51	71.1	178	91.6	106	96	109	114	99.8	105	81.7	88	85.6	101	103	109	104	97.5
